{"source": "patent US9180155B2", "about": "“Compositions from Nigella sativa” (Bio Nexus, Ltd, priority 2013, dated 2015)", "key": {"[1]": {"test_system": "adiponectin secretion in 3T3-L1 adipocytes", "experiment": "Adiponectin secretion in t10-CLA-stimulated 3T3-L1 adipocytes", "format": "cell-based, murine", "conditions": "t10-CLA 50 μM control = 100; μg TQ equivalents/mL: Thymoquinone 5.0, NS8 0.11, NS9 0.99, NS10 0.012, NSSpent#2 0.0005; NSSpent#1 5 μg/mL; listed as TQ", "description": "The 3T3-L1 murine fibroblast model as used in Example 4 was used in this experiments. Test materials were added four hours prior to the addition of t10-CLA at a concentration of 50 μM. Following overnight incubation, the supernatant media were sampled for determination of IL-6 and adiponectin. The adiponectin secreted into the medium was quantified using the Mouse Adiponectin Quantikine® Immunoassay kit with no modifications (R&D Systems, Minneapolis, Minn.). […] Test materials and were assayed in duplicate, while solvent controls were replicated eight times. IL-6 and adiponectin secretion were represented relative to the IL-6 and adiponectin secretion of the t10-CLA only controls as the IL-6 and adiponectin index and differences among the means were analyzed by the student's t-test assuming a five percent probability of a type I error (Excel; Microsoft, Redmond, Wash.)."}, "[2]": {"test_system": "LPS-stimulated macrophages", "conditions": "published results, El-Mahmoudy 2002; cited from earlier work"}, "3T3-L1 adipocytes": {"test_system": "3T3-L1 adipocytes", "experiment": "Lipolysis (glycerol assay) in 3T3-L1 adipocytes", "format": "cell-based, murine", "conditions": "forskolin 82 μg/mL, test materials 5 μg/mL (FIG. 9)", "description": "Culture and treatment of 3T3-L1 adipocytes and C2C12 myocytes was as described in Example 5. Concentrations of the forskolin positive control and test materials are listed in FIG. 9 for adipocytes and FIG. 10 for myocytes. Free fatty acid release from 3T3-L1 adipocytes or C2C12 myocytes was quantified by measuring glycerol secretion into the medium. Glycerol was measured spectrophotometrically using the Free Glycerol Determination Kit ([…], Sigma) and an EL 312e Microplate BIO-KINETICS spectrophotometer (BioTek, Winooski, Vt.). Glycerol release from adipocytes and myocytes was expressed, respectively, as the percent increase in free fatty acid secretion (FIG. 9) and relative glycerol content (glycerol index FIG. 10) ±95% confidence intervals of eight observations for one of three representative experiments."}}, "data": [{"smiles": "CC1=CC(=O)C(C(C)C)=CC1=O", "note": "[Thymoquinone, thymoquinone]", "values": [{"measurement": "Adiponectin Index", "setting": "[1]", "result": "attenuated t10-CLA-stimulated decrease of adiponectin secretion"}, {"measurement": "IC50 for NO inhibition in LPS-stimulated macrophages", "setting": "[2]", "result": "1.4 to 2.8", "unit": "mg/L"}, {"measurement": "free fatty acid release in adipocytes", "setting": "3T3-L1 adipocytes", "result": "induced free fatty acid release"}]}]}
